Read-outs that look alike come from different tables or passages of the source.
Molecular target: T1, human TRPM8 (Homo sapiens, UniProt Q7Z2W7)
T1 construct: expressed in transfected cells; host or cells: Chinese hamster ovary (CHO) cells, T-REx tetracycline-inducible expression system (Invitrogen); co-transfected with pcDNA3.1 aequorin
Experiment: Luminescence readout assay for measuring intracellular calcium (aequorin, CHO cells expressing human TRPM8; icilin, L-menthol or cold activation)
Format: cell-based
In short: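 Activation was by 1 μM icilin, 100 μM L-menthol (test compound 2.5 min ahead) or cold buffer below 10° C (compound 1 min ahead). Calcium rise measured as aequorin luminescence in CHO cells with tetracycline-inducible human TRPM8.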

[1] = CHO cells expressing human TRPM8, icilin activation (1 μM), aequorin luminescence, read-out: hTRPM8 IC50

T1 sequence (Q7Z2W7 whole entry): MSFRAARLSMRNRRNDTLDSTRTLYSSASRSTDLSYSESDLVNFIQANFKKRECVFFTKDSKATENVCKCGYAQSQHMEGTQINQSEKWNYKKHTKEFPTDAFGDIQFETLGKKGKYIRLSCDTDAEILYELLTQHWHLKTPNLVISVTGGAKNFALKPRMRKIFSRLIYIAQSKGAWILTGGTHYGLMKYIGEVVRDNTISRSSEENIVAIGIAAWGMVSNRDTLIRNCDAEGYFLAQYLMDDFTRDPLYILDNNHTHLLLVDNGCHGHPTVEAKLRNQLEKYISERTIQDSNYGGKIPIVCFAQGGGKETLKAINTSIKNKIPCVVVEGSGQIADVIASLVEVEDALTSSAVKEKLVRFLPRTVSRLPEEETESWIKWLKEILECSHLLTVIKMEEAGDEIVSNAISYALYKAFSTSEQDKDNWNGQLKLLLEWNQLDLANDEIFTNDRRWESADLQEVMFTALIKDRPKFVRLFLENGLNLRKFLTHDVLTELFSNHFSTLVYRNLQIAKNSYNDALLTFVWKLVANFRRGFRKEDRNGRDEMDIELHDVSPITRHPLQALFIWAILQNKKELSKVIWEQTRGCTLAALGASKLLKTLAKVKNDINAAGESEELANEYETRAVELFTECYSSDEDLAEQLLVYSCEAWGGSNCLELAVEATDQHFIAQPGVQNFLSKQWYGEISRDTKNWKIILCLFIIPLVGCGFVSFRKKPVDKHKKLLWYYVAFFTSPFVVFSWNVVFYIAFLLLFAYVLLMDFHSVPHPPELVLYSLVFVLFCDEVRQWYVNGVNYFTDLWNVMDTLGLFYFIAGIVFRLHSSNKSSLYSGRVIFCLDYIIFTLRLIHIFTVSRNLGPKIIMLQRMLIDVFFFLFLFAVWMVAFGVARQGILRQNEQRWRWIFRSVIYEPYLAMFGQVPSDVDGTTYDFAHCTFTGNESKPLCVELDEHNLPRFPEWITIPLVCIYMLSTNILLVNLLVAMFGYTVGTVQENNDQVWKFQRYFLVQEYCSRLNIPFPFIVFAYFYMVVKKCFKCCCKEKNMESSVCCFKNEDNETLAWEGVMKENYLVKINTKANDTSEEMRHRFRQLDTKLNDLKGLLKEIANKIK

Question: With `O=C(Nc1cnccc1Br)N[C@]1(c2ccc(OC(F)(F)F)c(F)c2)CCOc2cccnc21` [Example 94, (S)-1-(4-bromopyridin-3-yl)-3-(4-(3-fluoro-4-(trifluoromethoxy)phenyl)-3,4-dihydro-2H-pyrano[3,2-b]pyridin-4-yl)urea] as the compound, how does the IC50 [1] read?
Answer: Its IC50 is 230 nM.

Question: For `O=C(Nc1ccccn1)N[C@]1(c2ccc(OC(F)(F)F)c(F)c2)CCOc2cccnc21` [Example 95, (S)-1-(4-(3-fluoro-4-(trifluoromethoxy)phenyl)-3,4-dihydro-2H-pyrano[3,2-b]pyridin-4-yl)-3-(pyridin-2-yl)urea], which IC50 [1] is on record?
Answer: Its IC50 is 94 nM.

Question: Which IC50 [1] does the source give for `O=C(Nc1ccncc1)N[C@]1(c2ccc(OC(F)(F)F)c(F)c2)CCOc2cccnc21` [Example 96, (S)-1-(4-(3-fluoro-4-(trifluoromethoxy)phenyl)-3,4-dihydro-2H-pyrano[3,2-b]pyridin-4-yl)-3-(pyridin-4-yl)urea] here?
Answer: The IC50 was 6 nM.

Question: For `O=C(Nc1cc(F)c(O)c(F)c1)N[C@]1(c2ccc(OC(F)(F)F)c(F)c2)CCOc2cccnc21` [Example 97, (S)-1-(3,5-difluoro-4-hydroxyphenyl)-3-(4-(3-fluoro-4-(trifluoromethoxy)phenyl)-3,4-dihydro-2H-pyrano[3,2-b]pyridin-4-yl)urea], which IC50 [1] is on record?
Answer: The IC50 was 159 nM.

Question: `O=C(N[C@]1(c2ccc(OC(F)(F)F)c(F)c2)CCOc2cccnc21)N1CCCCC1` [Example 98, (S)-N-(4-(3-fluoro-4-(trifluoromethoxy)phenyl)-3,4-dihydro-2H-pyrano[3,2-b]pyridin-4-yl)piperidine-1-carboxamide] was tested. Which IC50 [1] did it give?
Answer: Its IC50 is 23 nM.

Question: For `COC(=O)C1CCN(C(=O)N[C@]2(c3ccc(OC(F)(F)F)c(F)c3)CCOc3cccnc32)CC1` [Example 99, (S)-methyl 1-((4-(3-fluoro-4-(trifluoromethoxy)phenyl)-3,4-dihydro-2H-pyrano[3,2-b]pyridin-4-yl)carbamoyl)piperidine-4-carboxylate], which IC50 [1] is on record?
Answer: Its IC50 is 106 nM.

Question: `O=C(N[C@]1(c2ccc(OC(F)(F)F)c(F)c2)CCOc2cccnc21)N1CCC(F)(F)CC1` [Example 100] was tested. Which IC50 [1] did it give?
Answer: Its IC50 is 187 nM.

Question: Which IC50 [1] does the source give for `O=C(N[C@]1(c2ccc(OC(F)(F)F)c(F)c2)CCOc2cccnc21)N1CCOCC1` [Example 101, (S)-N-(4-(3-fluoro-4-(trifluoromethoxy)phenyl)-3,4-dihydro-2H-pyrano[3,2-b]pyridin-4-yl)morpholine-4-carboxamide] here?
Answer: Its IC50 is 760 nM.

Question: How did the IC50 [1] turn out when `O=C(N[C@]1(c2ccc(OC(F)(F)F)c(F)c2)CCOc2cccnc21)N1CCC(O)CC1` [Example 102, (S)-N-(4-(3-fluoro-4-(trifluoromethoxy)phenyl)-3,4-dihydro-2H-pyrano[3,2-b]pyridin-4-yl)-4-hydroxypiperidine-1-carboxamide] was run?
Answer: The IC50 was 218 nM.

Question: For `O=C1CCN(C(=O)N[C@]2(c3ccc(OC(F)(F)F)c(F)c3)CCOc3cccnc32)CC1` [Example 103, (S)-N-(4-(3-fluoro-4-(trifluoromethoxy)phenyl)-3,4-dihydro-2H-pyrano[3,2-b]pyridin-4-yl)-4-oxopiperidine-1-carboxamide], which IC50 is on record?
Answer: The IC50 was 278 nM.

Question: With `O=C(N[C@]1(c2ccc(OC(F)(F)F)c(F)c2)CCOc2cccnc21)N1CCCC1` [Example 104, (S)-N-(4-(3-fluoro-4-(trifluoromethoxy)phenyl)-3,4-dihydro-2H-pyrano[3,2-b]pyridin-4-yl)pyrrolidine-1-carboxamide] as the compound, how does the IC50 [1] read?
Answer: Its IC50 is 85 nM.

Question: For `O=C(N[C@]1(c2ccc(OC(F)(F)F)c(F)c2)CCOc2cccnc21)N1CCC1` [Example 105, (S)-N-(4-(3-fluoro-4-(trifluoromethoxy)phenyl)-3,4-dihydro-2H-pyrano[3,2-b]pyridin-4-yl)azetidine-1-carboxamide], which IC50 [1] is on record?
Answer: Its IC50 is 404 nM.

Question: How did the IC50 [1] turn out when `O=C(Nc1ccccc1C(=O)O)N[C@]1(c2ccc(OC(F)(F)F)c(F)c2)CCOc2cccnc21` [Example 106, (S)-2-(3-(4-(3-fluoro-4-(trifluoromethoxy)phenyl)-3,4-dihydro-2H-pyrano[3,2-b]pyridin-4-yl)ureido)benzoic acid] was run?
Answer: Its IC50 is 39 nM.

Question: For `O=C(Nc1cccc(C(=O)O)c1)N[C@]1(c2ccc(OC(F)(F)F)c(F)c2)CCOc2cccnc21` [Example 107, (S)-3-(3-(4-(3-fluoro-4-(trifluoromethoxy)phenyl)-3,4-dihydro-2H-pyrano[3,2-b]pyridin-4-yl)ureido)benzoic acid], which IC50 [1] is on record?
Answer: Its IC50 is 150 nM.

Question: `O=C(Nc1ccc(C(=O)O)cc1)N[C@]1(c2ccc(OC(F)(F)F)c(F)c2)CCOc2cccnc21` [Example 108, (S)-4-(3-(4-(3-fluoro-4-(trifluoromethoxy)phenyl)-3,4-dihydro-2H-pyrano[3,2-b]pyridin-4-yl)ureido)benzoic acid] was tested. Which IC50 [1] did it give?
Answer: Its IC50 is 386 nM.

Question: For `O=C(Nc1ccc(-c2noc(=O)[nH]2)nc1)N[C@]1(c2ccc(OC(F)(F)F)c(F)c2)CCOc2cccnc21` [Example 109, (S)-1-(4-(3-fluoro-4-(trifluoromethoxy)phenyl)-3,4-dihydro-2H-pyrano[3,2-b]pyridin-4-yl)-3-(6-(5-oxo-4,5-dihydro-1,2,4-oxadiazol-3-yl)pyridin-3-yl)urea], which IC50 [1] is on record?
Answer: Its IC50 is 3060 nM.

Question: `O=C(O)C1CCN(C(=O)N[C@]2(c3ccc(OC(F)(F)F)c(F)c3)CCOc3cccnc32)CC1` [Example 110] was tested. Which IC50 [1] did it give?
Answer: Its IC50 is 585 nM.

Question: With `N#CCc1ccc([C@@]2(NC(=O)c3ccc(F)cc3)CCOc3cccnc32)cc1` [Example 111, (S)—N-(4-(4-(cyanomethyl)phenyl)-3,4-dihydro-2H-pyrano[3,2-b]pyridin-4-yl)-4-fluorobenzamide] as the compound, how does the IC50 [1] read?
Answer: Its IC50 is 1520 nM.

Question: For `O=C(N[C@]1(c2ccc(-c3ccccn3)cc2)CCOc2cccnc21)c1ccc(F)cc1` [Example 112, (S)-4-fluoro-N-(4-(4-(pyridin-2-yl)phenyl)-3,4-dihydro-2H-pyrano[3,2-b]pyridin-4-yl)benzamide], which IC50 [1] is on record?
Answer: Its IC50 is 233 nM.

Question: Which IC50 [1] does the source give for `O=C(N[C@]1(c2ccc(-c3ccccc3)cc2)CCOc2cccnc21)c1ccc(F)cc1` [Example 113, (S)—N-(4-([1,1′-biphenyl]-4-yl)-3,4-dihydro-2H-pyrano[3,2-b]pyridin-4-yl)-4-fluorobenzamide] here?
Answer: The IC50 was 53 nM.

Question: For `O=C(N[C@]1(c2ccc(-c3ccc(F)cc3)cc2)CCOc2cccnc21)c1ccc(F)cc1` [Example 114, (S)-4-fluoro-N-(4-(4′-fluoro-[1,1′-biphenyl]-4-yl)-3,4-dihydro-2H-pyrano[3,2-b]pyridin-4-yl)benzamide], which IC50 [1] is on record?
Answer: The IC50 was 50 nM.

Question: With `O=C(N[C@]1(c2ccc(-c3cccnc3)cc2)CCOc2cccnc21)c1ccc(F)cc1` [Example 115, (S)-4-fluoro-N-(4-(4-(pyridin-3-yl)phenyl)-3,4-dihydro-2H-pyrano[3,2-b]pyridin-4-yl)benzamide] as the compound, how does the IC50 [1] read?
Answer: The IC50 was 341 nM.

Question: Which IC50 [1] does the source give for `O=C(N[C@]1(c2ccc(-c3ccncc3)cc2)CCOc2cccnc21)c1ccc(F)cc1` [Example 116, (S)-4-fluoro-N-(4-(4-(pyridin-4-yl)phenyl)-3,4-dihydro-2H-pyrano[3,2-b]pyridin-4-yl)benzamide] here?
Answer: Its IC50 is 284 nM.

Question: For `CCOc1cnc(-c2ccc([C@@]3(NC(=O)c4ccc(F)cc4)CCOc4cccnc43)cc2)cn1` [Example 117, (S)-N-(4-(4-(5-ethoxypyrazin-2-yl)phenyl)-3,4-dihydro-2H-pyrano[3,2-b]pyridin-4-yl)-4-fluorobenzamide], which IC50 [1] is on record?
Answer: The IC50 was 73.7 nM.

Question: With `O=C(N[C@]1(c2ccc(-c3cccc(CO)c3)cc2)CCOc2cccnc21)c1ccc(F)cc1` [Example 118, (S)-4-fluoro-N-(4-(3′-(hydroxymethyl)-[1,1′-biphenyl]-4-yl)-3,4-dihydro-2H-pyrano[3,2-b]pyridin-4-yl)benzamide] as the compound, how does the IC50 [1] read?
Answer: The IC50 was 2170 nM.
